Values quoted from earlier work as cited in patent US20200330541A1, “COMPOSITIONS AND METHODS FOR MODULATING ENDOTHELIAL CELL MIGRATION AND ANGIOGENESIS” (University of Maine System Board of Trustees, priority 2017, published 2020).

Experiments:
[1] = test system: RAC1; details: smooth muscle cells, 24 hour exposure at 1 μmol/L and 100 μmol/L, compared to untreated cells
[2] = test system: endothelial cell; details: through the JAK/STAT3 and MAPK signaling pathways
[3] = test system: smooth muscle cell
[4] = test system: HUVEC; details: 200 μM, 100 μM, and 50 μM
[5] = healthy humans after consumption of black currant

## O=C(O)/C=C/c1ccc(O)c(O)c1 [caffeic acid]
[1]
  RAC1 protein synthesis: significantly decreased

## epigallocatechin-3 gallate
[2]
  endothelial cell migration, proliferation, and tubulogenesis: inhibited

## OC[C@H]1O[C@@H](Oc2cc3c(O)cc(O)cc3[o+]c2-c2ccc(O)cc2)[C@H](O)[C@@H](O)[C@@H]1O [pelargonidin-3-glucoside]
[3]
  cell proliferation and smooth muscle cell migration: inhibitory effect

## O=c1cc(-c2ccc(O)cc2)oc2cc(O)cc(O)c12 [apigenin]
[2]
  endothelial cell migration, proliferation, and tubulogenesis: inhibited

## O=c1oc2c(O)c(O)cc3c(=O)oc4c(O)c(O)cc1c4c23 [ellagic acid]
[2]
  endothelial cell migration, proliferation, and tubulogenesis: inhibited

## Delph inidin-3-(p-coumaroylrutinoside)-5-glucoside [nasunin]
[4]
  HUVEC proliferation rate: inhibit

## C[C@@H]1O[C@@H](OC[C@H]2O[C@@H](Oc3cc4c(O)cc(O)cc4[o+]c3-c3cc(O)c(O)c(O)c3)[C@H](O)[C@@H](O)[C@@H]2O)[C@H](O)[C@H](O)[C@H]1O [D3R, delphinidin, 3-O-β-rutinoside]
[5]
  concentration in the plasma: 73.7 ± 35.0 nM
